Results from patent US20220056019A1, “FARNESOID X RECEPTOR AGONISTS AND USES THEREOF” (Metacrine, Inc., priority 2018, published 2022).

Target: T1, hFXR (Homo sapiens, UniProt Q96RI1)
T1 construct: expressed in transfected cells; host or cells: CV-1 cells
T1 sequence (Q96RI1 1-486): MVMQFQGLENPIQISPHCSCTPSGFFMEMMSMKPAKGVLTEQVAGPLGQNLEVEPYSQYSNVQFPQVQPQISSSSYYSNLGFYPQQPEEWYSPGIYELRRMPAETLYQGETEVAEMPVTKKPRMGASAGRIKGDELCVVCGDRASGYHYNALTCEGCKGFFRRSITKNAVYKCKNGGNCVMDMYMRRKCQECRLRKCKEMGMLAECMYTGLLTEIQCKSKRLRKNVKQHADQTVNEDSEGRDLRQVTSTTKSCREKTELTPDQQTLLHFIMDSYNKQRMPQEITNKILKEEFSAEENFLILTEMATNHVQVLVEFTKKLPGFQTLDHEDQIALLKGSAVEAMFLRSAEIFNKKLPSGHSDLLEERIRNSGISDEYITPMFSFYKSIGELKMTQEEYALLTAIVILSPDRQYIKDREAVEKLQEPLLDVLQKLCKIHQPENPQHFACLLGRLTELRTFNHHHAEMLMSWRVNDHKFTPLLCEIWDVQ
T1 sequence (P19793 1-462 partner): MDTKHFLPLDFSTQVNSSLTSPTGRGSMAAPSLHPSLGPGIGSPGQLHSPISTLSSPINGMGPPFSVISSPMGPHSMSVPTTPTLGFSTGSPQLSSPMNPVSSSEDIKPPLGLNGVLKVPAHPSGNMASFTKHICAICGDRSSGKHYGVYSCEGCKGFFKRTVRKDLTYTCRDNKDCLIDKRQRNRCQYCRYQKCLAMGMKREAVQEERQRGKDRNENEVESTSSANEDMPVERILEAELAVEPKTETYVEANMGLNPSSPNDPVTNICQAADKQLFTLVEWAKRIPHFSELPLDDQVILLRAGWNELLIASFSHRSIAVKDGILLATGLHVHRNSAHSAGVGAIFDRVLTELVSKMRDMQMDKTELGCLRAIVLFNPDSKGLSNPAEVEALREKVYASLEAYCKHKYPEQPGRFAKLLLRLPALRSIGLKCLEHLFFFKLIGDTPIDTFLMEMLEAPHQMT
Experiment: In Vitro FXR Assay (TK): TK-ECRE-luc reporter in transfected CV-1 cells
Format: cell-based
Conditions: 18 hrs incubation, luminescence
Method: Example B-1: In Vitro FXR Assay (TK)
CV-1 cells were seeded at a density of 2,000,000 cells in a T175 flask with DMEM+10% charcoal double-stripped FBS and incubated at 37° C. in 5% CO2 for 18 h (O/N).
After 18 h of incubation, the medium in the T175 flask was changed with fresh DMEM+10% charcoal super-stripped serum. In a polypropylene tube, 2500 μL OptiMEM (Life Technologies, Cat #31985-062) was combined with expression plasmids for hFXR, hRXR, TK-ECRE-luc and pCMX-YFP. The tube was then briefly vortexed and incubated at room temperature for 5 minutes. Transfection reagent (X-tremeGENE HP from Roche, Cat #06 366 236 001) was added to the OptiMEM/plasmid mixture vortexed and incubated at room temperature for 20 minutes. Following incubation, the transfection reagent/DNA mixture complex was added to cells in the T175 flask and the cells were incubated at 37° C. in 5% CO2 for 18 h (O/N).
Compounds were serially diluted in DMSO and added to transfected CV-1 cells. The cells were then incubated for 18 hrs. The next day cells were lysed and examined for luminescence.

EC50	SMILES
≤ 50 nM	CCCC1CN(C(=O)O[C@H]2CC[C@H](C(=O)N(CC34CCC(c5ccc(OC)c(C)c5)(CC3)CC4)c3cc(-c4cnn(C(C)C)c4)ccn3)CC2)C1 [Compound 4.55, 4-((4-(1-Isopropyl-1H-pyrazol-4-yl)pyridin-2-yl) ((4-(4-methoxy-3-methylphenyl)bicyclo [2.2.2]octan-1-yl)methyl)carbamoyl)cyclohexyl trans-3-propylazetidine-1-carboxylate]
≤ 50 nM	COc1ccc([C@H]2CC[C@H](CN(c3cc(-c4cnn(C(C)C)c4)ccn3)C(=O)[C@H]3CC[C@H](OC(=O)NCC(C)F)CC3)CC2)cc1C (stereo partly drawn) [Compound 2.28, trans-4-((4-(1-Isopropyl-1H-pyrazol-4-yl)pyridin-2-yl)(((trans)-4-(4-methoxy-3-methylphenyl)cyclohexyl)methyl)carbamoyl) cyclohexyl(2-fluoropropyl)carbamate]
50 to 1000 nM	COc1ccc([C@H]2CC[C@H](CN(c3cccc(-c4cnn(C(C)C)c4)c3)C(=O)[C@H]3CC[C@H](NC(=O)OC4CN(C)C4)CC3)CC2)cc1C [Compound 6.07, 1-Methylazetidin-3-yl (trans-4-((3-(1-isopropyl-1H-pyrazol-4-yl)phenyl)((trans-4-(4-methoxy-3-methylphenyl)cyclohexyl)meth-yl)carbamoyl)cyclohexyl)carbamate]
≤ 50 nM	COc1ccc(C23CCC(CN(c4cc(-c5cnn(C(C)C)c5)ccn4)C(=O)[C@H]4CC[C@H](NC(C)=O)CC4)(CC2)CC3)cc1C [Compound 10.05, trans-4-Acetamido-N-(4-(1-isopropyl-1H-pyrazol-4-yl)pyridin-2-yl)-N-((4-(4-methoxy-3-methylphenyl)bicyclo[2.2.2]octan-1-yl)methyl)cyclohexane-carboxamide]
≤ 50 nM	COc1ccc([C@H]2CC[C@H](CN(c3cc(-c4cnn(C(C)C)c4)ccn3)C(=O)[C@H]3CC[C@H](OC(=O)N4CC(CO)C4)CC3)CC2)cc1C [Compound 2.03, trans-4-((4-(1-Isopropyl-1H-pyrazol-4-yl)pyridin-2-yl)(((trans)-4-(4-methoxy-3-methylphenyl)cyclohexyl)methyl)carbamoyl)cyclohexyl 3-(hydroxymethyl) azetidine-1-carboxylate]
≤ 50 nM	COc1c(C)cc(C23CCC(CN(c4cc(-c5cnn(C(C)C)c5)ccn4)C(=O)[C@H]4CC[C@H](OC(=O)N5CC(O)C5)CC4)(CC2)CC3)cc1C [Compound 26.07, 4-((4-(1-Isopropyl-1H-pyrazol-4-yl)pyridin-2-yl)((4-(4-methoxy-3,5-dimethylphenyl)bicyclo[2.2.2]octan-1-yl)methyl)carbamoyl)cyclohexyl trans-3-hydroxyazetidine-1-carboxylate]
≤ 50 nM	COc1ccc([C@H]2CC[C@H](CN(c3cccc(-c4coc(C5CC5)n4)c3)C(=O)[C@H]3CC[C@H](C(C)(C)O)CC3)CC2)nc1C [Compound 19, trans-N-(3-(2-Cyclopropyloxazol-4-yl)phenyl)-4-(2-hydroxypropan-2-yl)-N-((trans-4-(5-methoxy-6-methylpyridin-2-yl)cyclohexyl)methyl)cyclohexanecar-boxamide]
≤ 50 nM	COc1ccc(C23CCC(CN(c4cc(-c5coc(C6CC6)n5)ccn4)C(=O)[C@H]4CC[C@H](NC(=O)CO)CC4)(CC2)CC3)cc1C [Compound 9.11, (trans)-N-(4-(2-Cyclopropyloxazol-4-yl)pyridin-2-yl)-4-(2-hydroxyacetamido)-N-((4-(4-methoxy-3-methylphenyl)bicyclo[2.2.2]octan-1-yl)methyl)cyclohexanecarboxamide]
≤ 50 nM	COc1ccc(C23CCC(CN(c4cc(-c5cnn(C(C)C)c5)ncn4)C(=O)[C@H]4CC[C@H](OC(=O)N5CC(O)C5)CC4)(CC2)CC3)cc1C [Compound 23, 4-((6-(1-Isopropyl-1H-pyrazol-4-yl)pyrimidin-4-yl)((4-(4-methoxy-3-methylphenyl)bicyclo[2.2.2]octan-1-yl)methyl)carbamoyl)(trans-cyclohexyl) 3-hydroxyazetidine-1-carboxylate]
≤ 50 nM	COc1ccc([C@H]2CC[C@H](CN(c3cc(-c4cnn(CCF)c4)ccn3)C(=O)[C@H]3CC[C@H](OC(=O)N4CC(O)C4)CC3)CC2)cc1C [Compound 2.23, trans-4-((4-(1-(2-Fluoroethyl)-1H-pyrazol-4-yl)pyridin-2-yl) ((trans-4-(4-methoxy-3-methylphenyl)cyclohexyl)methyl)carbamoyl) cyclohexyl 3-hydroxyazetidine-1-carboxylate]
≤ 50 nM	COc1ccc([C@H]2CC[C@H](CN(c3cccc(-c4cnn(C(C)C)c4)c3)C(=O)[C@H]3CC[C@H](NC(=O)OC4COC4)CC3)CC2)cc1C [Compound 6.05, Oxetan-3-yl (trans-4-((3-(1-isopropyl-1H-pyrazol-4-yl)phenyl)((trans-4-(4-methoxy-3-methylphenyl)cyclohexyl)meth-yl)carbamoyl)cyclohexyl)carbamate]
≤ 50 nM	COc1ccc(C23CCC(CN(c4cc(-c5cnn(C(C)C)c5)ccn4)C(=O)[C@H]4CC[C@H](OC(=O)NCCO)CC4)(CC2)CC3)cc1C [Compound 4.05, 4-((4-(1-Isopropyl-1H-pyrazol-4-yl)pyridin-2-yl)((4-(4-methoxy-3-methylphenyl)bicyclo [2.2.2]octan-1-yl)methyl)carbamoyl)cyclohexyl (2-hydroxyethyl)trans-carbamate]
≤ 50 nM	COc1ccc([C@H]2CC[C@H](CN(c3cccc(-c4cnn(C(C)C)c4)c3)C(=O)[C@H]3CC[C@H](NC(=O)COCCCO)CC3)CC2)cc1C [Compound 13, trans-4-(2-(3-Hydroxypropoxy)acetamido)-N-(3-(1-isopropyl-1H-pyrazol-4-yl)phenyl)-N-((trans-4-(4-methoxy-3-methylphenyl)cyclohexyl)methyl)cyclohexanecarboxamide]
≤ 50 nM	CCc1ncc(-c2ccnc(N(CC34CCC(c5ccc(OC)c(C)c5)(CC3)CC4)C(=O)[C@H]3CC[C@H](OC(=O)N4CC(O)C4)CC3)c2)s1 [Compound 4.20, 4-((4-(2-Ethylthiazol-5-yl)pyridin-2-yl)((4-(4-methoxy-3-methylphenyl)bicyclo[2.2.2]octan-1-yl)methyl)carbamoyl) cyclohexyl 3-hydroxyazetidine-trans-1-carboxylate]
≤ 50 nM	COc1ccc(C23CCC(CN(c4cccc(-n5cnc(C6CC6)c5)c4)C(=O)[C@H]4CC[C@H](OC(=O)N5CC(O)C5)CC4)(CC2)CC3)cc1C [Compound 4.58, 4-((3-(4-Cyclopropyl-1H-imidazol-1-yl)phenyl) ((4-(4-methoxy-3-methylphenyl)bicyclo [2.2.2]octan-1-yl)methyl)carbamoyl)cyclohexyl trans-3-hydroxyazetidine-1-carboxylate]
≤ 50 nM	COc1ccc([C@H]2CC[C@H](CN(c3cc(-c4cnn(C(F)(F)F)c4)ccn3)C(=O)[C@H]3CC[C@H](OC(=O)N4CC(O)C4)CC3)CC2)cc1C [Compound 2.57, trans-4-((((trans)-4-(4-Methoxy-3-methylphenyl)cyclohexyl)methyl) (4-(1-(trifluoromethyl)-1H-pyrazol-4-yl)pyridin-2-yl)carbamoyl)cyclohexyl 3-hydroxyazetidine-1-carboxylate]
≤ 50 nM	CNC(=O)O[C@H]1CC[C@H](C(=O)N(CC23CCC(c4ccc(OC)c(C)c4)(CC2)CC3)c2cc(-c3cnn(C(C)C)c3)ccn2)CC1 [Compound 4.03, 4-((4-(1-Isopropyl-1H-pyrazol-4-yl)pyridin-2-yl)((4-(4-methoxy-3-methylphenyl)bicyclo [2.2.2]octan-1-yl)methyl)carbamoyl)cyclohexyl trans-methylcarbamate]
≤ 50 nM	CCc1nc(-c2ccnc(N(C[C@H]3CC[C@H](c4ccc(OC)c(C)c4)CC3)C(=O)[C@H]3CC[C@H](OC(=O)N4CC(O)C4)CC3)c2)co1 [Compound 2.36, trans-4-((4-(2-Ethyloxazol-4-yl)pyridin-2-yl)((trans-4-(4-methoxy-3-methylphenyl)cyclohexyl)methyl)carbamoyl)cyclohexyl 3-hydroxyazetidine-1-carboxylate]
